# Test results as given in patent US20100028879A1, “Modulators of HSD17b7 for treating acne or hyperseborrhea” (GALDERMA RESEARCH & DEVELOPMENT, priority 2006, published 2010).
# Like-named read-outs stand apart in the source and are kept apart here.
# Test system: HSD17B7 gene
# Conditions: gonadectomized mice, short-term treatment
# Procedure: The points Veh-24h-a and Veh-24h-b show the level of expression of HSD17B7 of gonadectomized mice untreated with DHT.
# The expression of the genes was analyzed on an Affymetrix station (microfluidic model; hybridization oven; scanner; computer) following the protocols provided by the company. Briefly, the total RNA isolated from the tissues was transcribed to cDNA. From the double-stranded cDNA, a cRNA labeled with biotin was synthesized using T7 polymerase and a precursor NTP conjugated to biotin. The cRNAs were then fragmented to small sized fragments. […] The Affymetrix chip is hybridized with the biotinylated cRNA, rinsed and then fluorescence labeled using a fluorophore conjugated to streptavidin. After washings, the chip is scanned and the results are calculated using the MAS5 software provided by Affymetrix. An expression value is obtained for each gene as well as the indication of the significance of the value obtained.
# B. Male mice were gonadectomized and were then treated with the vehicle or DHT. The preputial glands were removed for a period ranging up to 4 days (androgenic treatment alone—observation of a short-term kinetics). The RNA was isolated and the expression of the genes was analyzed by the Affymetrix technique using two different probe sets: 1417871_at (FIGS. 2A and 2C) and 1448865_at (FIGS. 2B and 2D).
smiles,measurement,setting,value
"C[C@]12CCC(=O)C[C@@H]1CC[C@@H]1[C@@H]2CC[C@]2(C)[C@@H](O)CC[C@@H]12 [DHT, Dihydrotestosterone]",mRNA for HSD17B7 in the mouse preputial gland,"kinetic study 15 minutes to 96 hours, effect visible at 24 and 96 hours, FIGS. 2A, 2B",moderately induced
same,mRNA for HSD17B7 in the mouse preputial gland,"kinetic study 1 hour to 24 hours, effect starting at 12 hours, well visible at 18 and 24 hours, FIGS. 2C, 2D",induced
